Key:
[1] = test system: level of liver glutathione; conditions: for glutathione level of the liver: fasted mice, acetaminophen 2.5 mmol/kg i.p., test compound 10 mmol/kg one-half hour later
Description: In this example, fasted mice were injected intraperitoneally with acetaminophen (2.5 mmol/kg), and one-half hour later (indicated by arrow in FIG. 3), they were given GSH monomethyl ester, GSH, L-cysteine, L-cysteine methyl ester (10 mmol/kg) or an equivalent volume of 0.15 M NaCl (control). Tissue GSH levels were determined at the indicated intervals on groups (3) of mice; values are means ±S.D.

[2] = test system: GSH level in the liver; assay: GSH level in the liver after sublethal acetaminophen (Example 7); format: in vivo; conditions: acetaminophen 2.5 mmol/kg i.p.; for GSH level in the liver: starved mice, test compound 10 mmol/kg i.p. half an hour later
Description: Groups of three starved mice were intraperitoneally treated with 2.5 mmol/kg (less than the lethal dose) of acetaminophen, and half an hour later 10 mmol/kg of the test compound was intraperitoneally administered to the mice. […] When other thiols such as L-cysteine and L-cysteine methyl ester were administered under the same conditions, the GSH level in the liver was markedly low.

[3] = test system: glutathione level of the liver and kidney; assay: Glutathione levels of liver and kidney of fasted mice given glutathione ester or glutathione (Example 1, Comparative Example 1); format: in vivo; conditions: for glutathione in the kidney / glutathione level of the liver: fasted mice, i.p. 10 millimoles per kilogram, 2 hours after administration, vs saline controls
Description: A solution of the glutathione ester was prepared in aseptic water. […] At intervals of 2 hours, as shown in FIGS. 1(a) and (b), the animals were decapitated and the liver and kidney tissues were removed and analyzed for glutathione. Using groups of 3 mice each, values are given as means ±S.D.

[4] = test system: GSH level in the liver and in the kidney; assay: GSH level in liver and kidney of starved mice (Example 6); format: in vivo; conditions: i.p. 10 mmol/kg, 2 to 3 hours after the administration
Description: The test compound was dissolved in sterile water to give a test solution. Groups of 3 mice, each having a body weight of 20 to 25 g, were starved over a period of 24 hours and treated intraperitoneally with a dose of 10 mmol/kg of the test compound. Mice were dissected by every two hours, and the liver and kidney were taken out. GSH analysis was performed on each of the organs.

[5] = test system: glutamic-pyruvic acid transaminase (GPT) activity in serum; assay: Serum GPT activity after acetaminophen (Example 9, Table 1); format: in vivo, Male ICR mice; conditions: half an hour after acetaminophen 2.5 mmol/kg, blood 8 hours after acetaminophen, ± SD
Description: Male ICR mice, each having a body weight of 30 to 40 g, were starved over a period of 15 hours and intraperitoneally treated with 2.5 mmol/kg of acetaminophen. The acetaminophen was used as a solution in Cremophore buffer (i.e. physiological saline solution containing 10% Cremophore and 1.5% ethanol). Half an hour later a designed amount of the test compound was intraperitoneally administered to the mice. The test compound was used as a solution in physiological saline adjusted to pH 6.5. […] Then, the glutamic-pyruvic acid transaminase (GPT) activity in serum was assayed. The results are shown in Table 1 as a percentage to that of the control group to which only acetaminophen was administered.
Note: Figure is a percentage of blood GPT activity to that of Control
Group (± Standard Deviation (n = 4 - 16)).

[6] = test system: GSH levels in the liver and in the kidney; assay: GSH levels in liver and kidney after 35S-labeled test compound, GSH synthesis inhibited by buthionine sulfoximine (Example 5); format: in vivo; conditions: mice, i.p. 7.5 mmol/kg, two hours after treatment, buthionine sulfoximine 2 mmol/kg 14 and 4 hours before dissection
Description: Groups of 3 or 4 mice, each having a body weight of 18 to 22g, were starved over a period of 12 hours and treated intraperitoneally with a dose of 7.5 mmol/kg of the test compound labeled by ^35 S (GSH labeled by ^35 S was used as the starting material). Two hours after the treatment, the test mice were dissected, and the liver and kidney were taken out. These organs were homogenized in 5 fold volume of 5% sulfosalicylic acid and centrifuged over a period of 5 minutes to give 0.05 ml of a supernatant fluid. The supernatant fluid was admixed with 0.95 ml of water and 4 ml of monofluorine scintillation fluid, and the ^35 S content was assayed by the use of an LKB scintillation counter. On the other hand, the supernatant fluid was treated with monobromobimane and subjected to HPLC to determine the amount of the test compound. The intracellular GSH synthesis was inhibited by administering intraperitoneally 2 mmol/kg of buthionine sulfoximine 14 hours and 4 hours before the dissection.

[7] = test system: mice; assay: Survival of starved mice after lethal dose of acetaminophen (Example 8); format: in vivo; conditions: acetaminophen 5 mmol/kg i.p., test compound 10 mmol/kg one hour later, 15 mice, 7 days
From the text: Starved mice were intraperitoneally treated with 5 mmol/kg (lethal dose) of acetaminophen and, one hour later, with 10 mmol/kg of the test compound.

[8] = test system: mice
[9] = test system: glutathione levels of the liver and kidney; assay: Glutathione levels of liver and kidney of mice pretreated with buthionine sulfoximine (Example 2); format: in vivo
From the text: Controls were again given saline, with tissue levels of GSH being determined at the indicated intervals. Values are means ±S.D., using groups of 3 mice each.

[10] = mice pretreated with 2 mmol/kg buthionine sulfoximine, ester 10 mmol/kg i.p. 4 hours after the inhibitor
[11] = buthionine sulfoximine 2 mmol/kg, before ester

Compound | glutathione level of the liver [1] | GSH level in the liver [2] | GSH level in the kidney [4] | GSH level in the liver [4] | percentage of blood GPT activity to that of Control Group ([5]; Dosage 0.1 mmol/kg i.p.) [%] | percentage of blood GPT activity to that of Control Group ([5]; Dosage 0.3 mmol/kg i.p.) [%] | percentage of blood GPT activity to that of Control Group ([5]; Dosage 1 mmol/kg i.p.) [%] | GSH level in the kidney [6] | GSH level in the liver [6] | survival [7] | percentage of blood GPT activity to that of Control Group ([5]; Dosage 0.01 mmol/kg i.p.) [%] | also measured
COC(=O)[C@@H](N)CS [L-cysteine methyl ester, reference compound] | much less | markedly low | – | – | – | – | – | – | – | – | – | –
N[C@@H](CCC(=O)N[C@@H](CS)C(=O)NCC(=O)O)C(=O)O [GSH, L-γ-glutamyl-L-cysteinyl-glycine, reference compound] | – | – | slight elevation | No elevation | 105.3 ± 20.1 | 68.5 ± 16.3 | 4.2 ± 0.5 | 0.560 µmol/g | 0.582 µmol/g | – | – | glutathione in the kidney [3]: only a slight effect; glutathione level of the liver [3]: no effect
CC(C)COC(=O)CNC(=O)[C@H](CS)NC(=O)CC[C@H](N)C(=O)O [GSH monoisobutyl ester, Isobutyl γ-L-glutamyl-L-cysteinylglycinate] | – | marked elevation | substantial elevation | substantial elevation | 44.8 ± 14.8 | – | 3.6 ± 0.4 | more than 2.0 μmol/g | more than 1.0 μmol/g | survived | 84.1 ± 13.0 | –
CC(=O)Nc1ccc(O)cc1 [acetaminophen, reference compound] | – | – | – | – | – | – | – | – | – | – | – | lethality of acetaminophen alone ([8]; 5 mmole per kilogram, 40 mice, within 7 days): all of the mice died; level of liver glutathione after acetaminophen alone ([1]; sublethal dose 2.5 mmol/kg i.p., control given 0.15 M NaCl): marked decrease; GSH level in the liver after acetaminophen alone ([2]; control group given 0.15 M saline): Marked fall
CC(C)OC(=O)CNC(=O)[C@H](CS)NC(=O)CC[C@H](N)C(=O)O [GSH monoisopropyl ester, Isopropyl γ-L-glutamyl-L-cysteinylglycinate] | – | marked elevation | substantial elevation | substantial elevation | 19.8 ± 7.9 | 8.8 ± 3.5 | 3.8 ± 0.5 | more than 2.0 μmol/g | more than 1.0 μmol/g | survived | 75.2 ± 15.0 | percentage of blood GPT activity to that of Control Group ([5]; Dosage 0.03 mmol/kg i.p.): 51.2 ± 15.6%
COC(=O)CNC(=O)[C@H](CS)NC(=O)CC[C@H](N)C(=O)O [glutathione monomethyl ester] | increased markedly | – | – | – | – | – | – | – | – | – | – | glutathione level in kidney [9, 10]: substantial increase; glutathione level in liver [9, 10]: substantial increase; glutathione in the kidney [3]: increased substantially; glutathione level of the liver [3]: increased substantially; fatalities ([8]; acetaminophen 5 mmole per kilogram, ester 10 mmole per kilogram 1 hour later, 15 mice, 7 days): no fatalities
CCCCS(=N)(=O)CCC(N)C(=O)O (centres unmarked) [buthionine sulfoximine, reference compound] | – | – | – | – | – | – | – | – | – | – | – | glutathione level of the kidney after the inhibitor [9, 11]: decreased to a very low value; glutathione level of the liver after the inhibitor [9, 11]: decreased to a very low value
CCOC(=O)CNC(=O)[C@H](CS)NC(=O)CC[C@H](N)C(=O)O [glutathione monoethyl ester, L-γ-Glutamyl-L Cysteinyl Glycyl Ethyl Ester] | – | – | – | – | – | – | – | – | – | – | – | effects on tissue glutathione levels compared with glutathione monomethyl ester ([3]; comparison of monoethyl with monomethyl ester): about the same
CCCCCCOC(=O)CNC(=O)[C@H](CS)NC(=O)CC[C@H](N)C(=O)O [GSH mono-n-hexyl ester, n-Hexyl γ-L-glutamyl-L-cysteinylglycinate] | – | marked elevation | substantial elevation | substantial elevation | 60.6 ± 15.8 | 13.2 ± 0.3 | 3.0 ± 0.3 | more than 2.0 μmol/g | more than 1.0 μmol/g | survived | 100.6 ± 31.3 | percentage of blood GPT activity to that of Control Group ([5]; Dosage 0.03 mmol/kg i.p.): 82.3 ± 33.5%
N[C@@H](CS)C(=O)O [L-cysteine, reference compound] | much less | markedly low | – | – | – | – | – | – | – | – | – | –
